From patent publication US7863312B2, “Pyrazolidinone compounds as ligands of the prostaglandin EP2 and/or EP4 receptors” (Merck Serono SA, priority 2001, dated 2011)

Assays:
[1] = biological target: EP4 receptor (Homo sapiens, UniProt P35408); test: EP4 receptor binding assay (3H-PGE2 SPA); conditions: EP4 receptor membranes, 20 nM 3H-PGE2, pH 6.0, 2 hrs room temperature
Protocol: Compounds of the invention were tested in an EP4 receptor binding assay of the following protocol.

[2] = biological target: T1, HEK293-EBNA cells transfected with pCEP4-hEP4 receptors (Homo sapiens, UniProt P35408); test: EP4 cAMP assay; assay type: cell-based; conditions: total cAMP, 1 hour 37° C.
T1 construct: expressed in transfected cells; host or cells: HEK293-EBNA
Protocol: (§1) Compounds of the invention were tested in a total cAMP assay as follows. HEK293-EBNA cells transfected with pCEP4-hEP4 receptors were seeded in 96 well opaque plate (Costar #3917) at 4×10^4 cells per well in 100 μl of culture medium (D-MEM/F12 supplemented with 10% FBS, […] L-glutamine, and 250 μg/ml of hygromycin; all from GibcoBRL) and incubated at 37° C. After overnight incubation, the medium was removed from each well and replaced with 45 μl of assay medium consisted of phenol red free D-MEM/F-12, 0.1% BSA (GibcoBRL) and 0.1 mM3-isobutyl-1-methyl-xanthine (Sigma). After 15 minutes of incubation at 37° C., 16-16-dimethyl PGE-2 or compounds of the invention at desired concentrations in 20 μl of assay medium were added to cells and further incubated at 37° C. for 1 hour. Total cAMP (intra- and extra-cellular) was measured by using a cAMP-screen ELISA System (Tropix, #CS1000).
In Table II, the tested compound is identified both by the corresponding synthetic Example number above as well as structure of the tested compound.

[3] = biological target: T2, HEK293-EBNA cells transfected with pCEP4-hEP2 receptors (Homo sapiens, UniProt P43116); test: EP2 cAMP assay; assay type: cell-based; conditions: total cAMP, 1 hour 37° C.
T2 construct: expressed in transfected cells; host or cells: HEK293-EBNA
Protocol: as §1, with “pCEP4-hEP2” for “pCEP4-hEP4”, “compounds” for “compounds of the invention”

[4] = biological target: EP2 receptor (Homo sapiens, UniProt P43116); test: EP2 receptor binding assay (3H-PGE2 SPA); conditions: EP2 receptor membranes, 20 nM 3H-PGE2, pH 6.0, 2 hrs room temperature
Protocol: Compounds of the invention were tested in an EP2 receptor binding assay of the following protocol. As referred to herein, the term a “standard EP2 receptor binding assay” designates the following protocol.

T1 sequence (P35408 whole entry): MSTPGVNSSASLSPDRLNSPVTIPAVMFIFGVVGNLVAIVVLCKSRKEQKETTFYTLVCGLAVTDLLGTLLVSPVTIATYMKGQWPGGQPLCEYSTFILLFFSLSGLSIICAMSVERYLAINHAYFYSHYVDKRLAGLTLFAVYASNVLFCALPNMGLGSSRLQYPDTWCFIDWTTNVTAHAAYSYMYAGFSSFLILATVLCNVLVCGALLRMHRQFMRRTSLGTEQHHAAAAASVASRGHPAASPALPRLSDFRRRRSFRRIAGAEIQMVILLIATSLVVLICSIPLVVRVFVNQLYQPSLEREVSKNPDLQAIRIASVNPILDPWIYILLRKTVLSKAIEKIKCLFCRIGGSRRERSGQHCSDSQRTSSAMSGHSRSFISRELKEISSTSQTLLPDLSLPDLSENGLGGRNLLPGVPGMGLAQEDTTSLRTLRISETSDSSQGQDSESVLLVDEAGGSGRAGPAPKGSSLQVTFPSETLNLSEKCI
Sequence of EP4 receptor (P35408 whole entry): as above
Sequence of EP2 receptor (P43116 whole entry): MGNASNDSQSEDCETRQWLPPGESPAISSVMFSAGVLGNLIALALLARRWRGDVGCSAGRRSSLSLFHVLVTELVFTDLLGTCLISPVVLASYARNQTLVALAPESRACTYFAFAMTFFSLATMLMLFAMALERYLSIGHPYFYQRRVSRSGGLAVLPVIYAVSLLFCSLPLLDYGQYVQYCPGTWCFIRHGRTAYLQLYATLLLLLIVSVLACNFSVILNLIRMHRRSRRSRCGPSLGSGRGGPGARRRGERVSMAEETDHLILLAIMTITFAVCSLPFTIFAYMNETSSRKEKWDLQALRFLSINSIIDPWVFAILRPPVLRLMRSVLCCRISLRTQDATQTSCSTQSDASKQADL
T2 sequence (P43116 whole entry): as above

`CCCCCC(O)CCCN1CCC(=O)N1CCc1ccc(C(=O)O)cc1` (stereo in doubt) [Example 14, 4-{2-[2-((4S)-hydroxynonyl)-5-oxopyrazolidin-1-yl]ethyl}benzoic acid] showed a Ki [1] of 566 nM, an EC50 [2] of 10 nM and an EC50 [3] of 566 nM. It also gave a Ki [4] of 1.86 µM.
`CCCCCC(O)CCCN1CCC(=O)N1CCc1ccc(C(=O)O)cc1` (stereo in doubt) [Example 15, 4-{2-[2-((4R)-hydroxynonyl)-5-oxopyrazolidin-1-yl]ethyl}benzoic acid] showed an EC50 [3] of 1500 nM and a Ki [4] of 3.26 µM.
Compound `CC(c1ccccc1)C(O)CCN1CCC(=O)N1CCc1ccc(C(=O)O)cc1` (stereo in doubt) [Example 27, 4-(2-{2-[(4S)-3-hydroxy-4-phenylpentyl]-5-oxopyrazolidin-1-yl}ethyl)benzoic acid] has a Ki [1] of 95 nM and a Ki [4] of 7.09 µM.
In the case of `CC(c1ccccc1)C(O)CCN1CCC(=O)N1CCc1ccc(C(=O)O)cc1` (stereo in doubt) [Example 30, 4-(2-{2-[(4R)-3-hydroxy-4-phenylpentyl]-5-oxopyrazolidin-1-yl}ethyl)benzoic acid], the Ki [1] is reported as 93 nM and the Ki [4] is reported as 5.13 µM.
In the case of `CCCCCC(O)CCN1CCC(=O)N1CCc1ccc(C(=O)O)cc1` (centres unmarked) [Example 1, 4-[2-(2-(3-hydroxyoctyl)-5-oxopyrazolidin-1-yl)ethyl]benzoic acid], the Ki [1] is reported as 250 nM, the EC50 [2] is reported as 5 nM and the EC50 [3] is reported as 595 nM. For the same compound, the Ki [4] was 2.2 µM.
Work on `CCCCCC(O)C#CCN1CCC(=O)N1CCc1ccc(C(=O)O)cc1` (centres unmarked) [Example 2, 4-{2-[2-(4-hydroxynon-2-ynyl)-5-oxopyrazolidin-1-yl]ethyl}benzoic acid] yielded an EC50 [3] greater than 50000 nM and a Ki [4] greater than 50 µM.
Compound `CCCCCC(O)CCCN1CCC(=O)N1CCc1ccc(C(=O)O)cc1` (centres unmarked) [Example 3, 4-{2-[2-(4-hydroxynonyl)-5-oxopyrazolidin-1-yl]ethyl}benzoic acid] has a Ki [1] of 2000 nM, an EC50 [3] of 1300 nM and a Ki [4] of 2.44 µM.
`CCCCCC(O)/C=C\CN1CCC(=O)N1CCc1ccc(C(=O)O)cc1` (centres unmarked) [Example 4, 4-(2-{2-[(2Z)-4-hydroxynon-2-enyl]-5-oxopyrazolidin-1-yl}ethyl)benzoic acid] was tested, and the EC50 [3] was 2600 nM and the Ki [4] was 17.2 µM.
Work on `CCCCCC(O)/C=C/CN1CCC(=O)N1CCc1ccc(C(=O)O)cc1` (centres unmarked) [Example 5, 4-(2-{2-[(2E)-4-hydroxynon-2-enyl]-5-oxopyrazolidin-1-yl}ethyl)benzoic acid] yielded an EC50 [3] of 12500 nM and a Ki [4] of 25.9 µM.
`CCCCC(O)CCCN1CCC(=O)N1CCc1ccc(C(=O)O)cc1` (centres unmarked) [Example 6, 4-{2-[2-(4-hydroxyoctyl)-5-oxopyrazolidin-1-yl]ethyl}benzoic acid] showed an EC50 [3] of 1400 nM and a Ki [4] of 5.66 µM.
With `CC(C)CC(O)CCCN1CCC(=O)N1CCc1ccc(C(=O)O)cc1` (centres unmarked) [Example 7, 4-{2-[2-(4-hydroxy-6-methylheptyl)-5-oxopyrazolidin-1-yl]ethyl}benzoic acid] the EC50 [3] was 9700 nM and the Ki [4] was 28.6 µM.
For `CCCC(C)C(O)CCCN1CCC(=O)N1CCc1ccc(C(=O)O)cc1` (centres unmarked) [Example 8, 4-{2-[2-(4-hydroxy-5-methyloctyl)-5-oxopyrazolidin-1-yl]ethyl}benzoic acid], the EC50 [3] was 2100 nM and the Ki [4] was 5.16 µM.
`CCCCC(O)(CC)CCCN1CCC(=O)N1CCc1ccc(C(=O)O)cc1` (centres unmarked) [Example 9, 4-{2-[2-(4-ethyl-4-hydroxyoctyl)-5-oxopyrazolidin-1-yl]ethyl}benzoic acid] showed an EC50 [3] of 461 nM and a Ki [4] of 0.495 µM.
`CCCC(C)(O)CCCN1CCC(=O)N1CCc1ccc(C(=O)O)cc1` (centres unmarked) [Example 10, 4-{2-[2-(4-hydroxy-4-methylheptyl)-5-oxopyrazolidin-1-yl]ethyl}benzoic acid] was tested, and the EC50 [3] was 5300 nM and the Ki [4] was 28.9 µM.
`CC(C)CCC(C)(O)CCCN1CCC(=O)N1CCc1ccc(C(=O)O)cc1` (centres unmarked) [Example 11, 4-{2-[2-(4-hydroxy-4,7-dimethyloctyl)-5-oxopyrazolidin-1-yl]ethyl}benzoic acid] gave an EC50 [3] of 10000 nM and a Ki [4] of 20.2 µM.
In the case of `CC(C)CC(O)CCN1CCC(=O)N1CCc1ccc(C(=O)O)cc1` (centres unmarked) [Example 12, 4-{2-[2-(3-hydroxy-5-methylhexyl)-5-oxopyrazolidin-1-yl]ethyl}benzoic acid], the Ki [1] is reported as 2000 nM, the EC50 [2] is reported as 277 nM and the EC50 [3] is reported as 15000 nM. The Ki [4] was 4.41 µM.
Compound `CCCC(C)C(O)CCN1CCC(=O)N1CCc1ccc(C(=O)O)cc1` (centres unmarked) [Example 13, 4-{2-[2-(3-hydroxy-4-methylheptyl)-5-oxopyrazolidin-1-yl]ethyl}benzoic acid] has a Ki [1] of 6000 nM, an EC50 [3] of 5000 nM and a Ki [4] of 2.76 µM.
For `CCCCCC(C)(O)CCCN1CCC(=O)N1CCc1ccc(C(=O)O)cc1` (centres unmarked) [Example 16, 4-{2-[2-(4-Hydroxy-4-methylnonyl)-5-oxopyrazolidin-1-yl]-ethyl}-benzoic acid], the EC50 [3] was 1600 nM and the Ki [4] was 0.475 µM.
In the case of `O=C(O)c1ccc(CCN2C(=O)CCN2CCCC(O)C2(CC3CC3)CCC2)cc1` (centres unmarked) [Example 18, 4-[2-(2-{4-[1-(cyclopropylmethyl)cyclobutyl]-4-hydroxybutyl}-5-oxopyrazolidin-1-yl)ethyl]benzoic acid], the EC50 [3] is reported as 578 nM and the Ki [4] is reported as 0.61 µM.
`CCC1(C(O)CCCN2CCC(=O)N2CCc2ccc(C(=O)O)cc2)CCC1` (centres unmarked) [Example 19, 4-(2-{2-[4-(1-ethylcyclobutyl)-4-hydroxybutyl}-5-oxopyrazolidin-1-yl}ethyl)benzoic acid] was tested, and the EC50 [3] was 393 nM and the Ki [4] was 0.75 µM.
For `O=C(O)c1ccc(CCN2C(=O)CCN2CCC(O)Cc2ccccc2)cc1` (centres unmarked) [Example 21, 4-{2-[2-(3-hydroxy-4-phenylbutyl)-5-oxopyrazolidin-1-yl]ethyl}benzoic acid], the Ki [1] was 68 nM and the Ki [4] was 6.2 µM.
With `O=C(O)c1ccc(CCN2C(=O)CCN2CCC(O)Cc2cccc(OC(F)(F)F)c2)cc1` (centres unmarked) [Example 24, 4-[2-(2-{3-hydroxy-4-[3-(trifluoromethoxy)phenyl]butyl}-5-oxopyrazolidin-1-yl)ethyl]benzoic acid] the Ki [1] was 59 nM and the Ki [4] was 2.83 µM.
Work on `O=C(O)c1ccc(CCN2C(=O)CCN2CCC(O)Cc2cccc(F)c2)cc1` (centres unmarked) [Example 25, 4-(2-{2-[4-(3-fluorophenyl)-3-hydroxybutyl]-5-oxopyrazolidin-1-yl}ethyl)benzoic acid] yielded a Ki [1] of 36 nM and a Ki [4] of 6.29 µM.
`O=C(O)c1ccc(CCN2C(=O)CCN2CCC(O)Cc2cccc(C(F)(F)F)c2)cc1` (centres unmarked) [Example 26, 4-[2-(2-{3-hydroxy-4-[3-(trifluoromethyl)phenyl]butyl}-5-oxopyrazolidin-1-yl)ethyl]benzoic acid] showed an EC50 [3] of 17600 nM and a Ki [4] of 6.65 µM.
With `O=C(O)c1ccc(CCN2C(=O)CCN2CCC(O)Cc2ccc3c(c2)OCO3)cc1` (centres unmarked) [Example 28, 4-(2-{2-[4-(1,3-benzodioxol-5-yl)-3-hydroxybutyl]-5-oxopyrazolidin-1-yl}ethyl)benzoic acid] the Ki [1] was 376 nM.
For `O=C(O)c1ccc(CCN2C(=O)CCN2CCC(O)Cc2cccc(Cl)c2)cc1` (centres unmarked) [Example 29, 4-(2-{2-[4-(3-chlorophenyl)-3-hydroxybutyl]-5-oxopyrazolidin-1-yl}ethyl)benzoic acid], the Ki [1] was 18 nM and the Ki [4] was 5.69 µM.
